Among the data in PubChem BioAssay (NCI) are TGI and GI50 values, retold here.

The structures appear in SMILES notation.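 Cells were grown in 96-well plates and exposed to each compound for 48 hours at five concentrations; endpoints were interpolated linearly between bracketing concentrations, or set to the highest concentration if not reached. The concentration for 50% growth inhibition is given as GI50. TGI is the concentration that stops growth completely.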

Some test systems named below: ACHN renal; HOP-92 NSCLC; HT29 colon; NCI-H522 lung; RPMI-8226 leukemia; SF-539 CNS; SR leukemia; UACC-257 melanoma; DU-145 prostate; MDA-N; SF-268 CNS.
Holding throughout (assay): DTP human tumour cell line panel, 48 h

As to `N#C[S-].[Ce+3].c1cnc2c(c1)ccc1cccnc12.c1cnc2c(c1)ccc1cccnc12.c1cnc2c(c1)ccc1cccnc12`, the TGI with ACHN renal is 11.7 µM; with HOP-92 NSCLC, 22.7 µM; with HT29 colon, 23.9 µM; in the assay on NCI-H522 lung it was 21.1 µM; in the assay with RPMI-8226 leukemia, > 100 µM; in the assay with SF-539 CNS it was 16 µM. The results for the TGI with SR leukemia and with UACC-257 melanoma were > 100 µM and 18.9 µM, respectively.

In the case of `COc1cc2c(cc1OC)-c1cc3ccc(OC)c(OC)c3c[n+]1CC2`, the TGI with ACHN renal, in the assay with DU-145 prostate, in the assay with HOP-92 NSCLC, in the assay with HT29 colon, in the assay with MDA-N and with NCI-H522 lung was > 100 µM throughout. Also, the TGI in the assay on RPMI-8226 leukemia, in the assay on SF-268 CNS, in the assay with SF-539 CNS, in the assay with SR leukemia and with UACC-257 melanoma was > 100 µM throughout.

Turning to `O=C(NNC(=O)c1nsc2ccccc12)c1ccc(Cl)cc1`, the TGI with ACHN renal is > 100 µM; in the assay with HOP-92 NSCLC it was 32.8 µM; with HT29 colon, 41.8 µM; in the assay on RPMI-8226 leukemia it was 50.2 µM; in the assay with SF-268 CNS, 41.3 µM; with SF-539 CNS, 41.9 µM. In addition, the TGI was 75.5 µM with SR leukemia and 48.2 µM with UACC-257 melanoma.

For `CCOC(=O)c1c(CN2CCCC2)n(-c2ccccc2)c2cc(Br)c(OC)cc12`, the concentration for total growth inhibition (TGI) with ACHN renal is 35.3 µM; in the assay on DU-145 prostate, 69.2 µM; in the assay with HOP-92 NSCLC, 33.2 µM; in the assay on HT29 colon, 24 µM; with MDA-N, > 100 µM; in the assay on NCI-H522 lung it was 31.6 µM. In addition, the TGI was 34 µM in the assay on RPMI-8226 leukemia; > 100 µM in the assay with SF-268 CNS; 72.6 µM in the assay on SF-539 CNS; 25 µM in the assay on SR leukemia; 28.6 µM with UACC-257 melanoma.

Consider `CNC(=O)Nc1ccccc1`, for which the TGI in the assay on ACHN renal, in the assay on DU-145 prostate, in the assay on HOP-92 NSCLC, in the assay with HT29 colon, in the assay on MDA-N and in the assay with NCI-H522 lung was > 100 µM in each case. Moreover, the TGI with RPMI-8226 leukemia, in the assay with SF-268 CNS, in the assay on SF-539 CNS, in the assay with SR leukemia and with UACC-257 melanoma was > 100 µM in each case.

Take `C[N+](C)(CCO)CCN1c2ccccc2Sc2ccccc21`: the TGI in the assay with ACHN renal, in the assay on DU-145 prostate, in the assay on HT29 colon, in the assay on MDA-N, in the assay on NCI-H522 lung and in the assay with RPMI-8226 leukemia was > 10 µM throughout. The TGI in the assay on SF-268 CNS, with SF-539 CNS and in the assay with SR leukemia was > 10 µM in each case.

Turning to `O=C1C[C@H](CCC(=O)OCc2ccccc2)NC(=O)C[C@H](CCC(=O)OCc2ccccc2)NC(=O)C[C@H](CCC(=O)OCc2ccccc2)N1`, the TGI in the assay with ACHN renal was 69.4 µM; in the assay on DU-145 prostate it was > 100 µM; with HOP-92 NSCLC, 18.8 µM; with HT29 colon it was > 100 µM; with MDA-N it was > 100 µM; with NCI-H522 lung it was > 100 µM. Moreover, the TGI in the assay on RPMI-8226 leukemia is > 100 µM; with SF-539 CNS, 40.4 µM; in the assay on SR leukemia, > 100 µM; with UACC-257 melanoma, > 100 µM.

`Clc1ccc(-c2nnc(-c3c(Cl)c(Cl)c(Cl)c(Cl)c3-c3nc4ccccc4[nH]3)o2)cc1`: the TGI with ACHN renal, in the assay on DU-145 prostate, with HOP-92 NSCLC, with HT29 colon, in the assay with MDA-N and in the assay with NCI-H522 lung was > 100 µM in each case. Moreover, the TGI in the assay with RPMI-8226 leukemia, in the assay on SF-268 CNS, in the assay with SF-539 CNS, in the assay with SR leukemia and in the assay on UACC-257 melanoma was > 100 µM throughout.

Consider `COc1ccc(C)cc1Nc1nnc(-c2ccc(N)cc2)s1`, for which the concentration for total growth inhibition (TGI) in the assay on ACHN renal, in the assay on DU-145 prostate, in the assay on HOP-92 NSCLC, in the assay on HT29 colon, with MDA-N and with NCI-H522 lung was > 100 µM each time. Further, the TGI in the assay on RPMI-8226 leukemia was 98.4 µM; in the assay with SF-268 CNS, > 100 µM; with SF-539 CNS it was > 100 µM; with SR leukemia it was > 100 µM; in the assay on UACC-257 melanoma, > 100 µM.

For `O=c1/c(=C/c2ccc([N+](=O)[O-])o2)sc2n1[C@@H](c1ccc3c(c1)OCO3)C=C(c1cc(F)c(Cl)cc1Cl)N=2`, the TGI with ACHN renal turned out to be 33.2 µM; in the assay on DU-145 prostate it was 79.8 µM; with HOP-92 NSCLC it was 26.6 µM; in the assay with HT29 colon it was 46 µM; in the assay with MDA-N, 43.3 µM; in the assay with NCI-H522 lung, 65.6 µM. Moreover, the TGI in the assay with RPMI-8226 leukemia was > 100 µM; in the assay with SF-268 CNS it was > 100 µM; with SF-539 CNS it was > 100 µM; in the assay on SR leukemia, > 100 µM; with UACC-257 melanoma, 34.8 µM.

In the case of `CC(=O)C1=C(O)CCC1=O`, the TGI in the assay on ACHN renal, with DU-145 prostate, in the assay on HOP-92 NSCLC, with HT29 colon, with NCI-H522 lung and with RPMI-8226 leukemia was > 100 µM each time. For the same compound, the TGI with SF-268 CNS, in the assay on SF-539 CNS, in the assay on SR leukemia and in the assay on UACC-257 melanoma was > 100 µM in each case.

Turning to `Cn1c(=O)c2c(nc(NCCNc3nc4c(c(=O)n(C)c(=O)n4C)n3C)n2C)n(C)c1=O`, the TGI in the assay with ACHN renal, in the assay on DU-145 prostate, in the assay with HOP-92 NSCLC, in the assay with HT29 colon, with MDA-N and in the assay with NCI-H522 lung was > 100 µM each time. Also, the TGI with SF-268 CNS, in the assay with SR leukemia and with UACC-257 melanoma was > 100 µM in each case.

On to `NC(CC(=O)O)(Cc1ccccc1)C(=O)O` (centres undefined), for which the total growth inhibition concentration (TGI) with ACHN renal, with DU-145 prostate, in the assay with HOP-92 NSCLC, with HT29 colon, in the assay with MDA-N and in the assay with NCI-H522 lung was > 100 µM throughout. Also, the TGI in the assay with RPMI-8226 leukemia, in the assay on SF-539 CNS, in the assay with SR leukemia and with UACC-257 melanoma was > 100 µM throughout.

Turning to `C[C@]12CCC(=O)C=C1CC[C@@H]1[C@@H]2[C@@H](O)C[C@@]2(C)[C@H]1CC[C@]2(O)C(=O)COC(=O)C1CCCC1`, the TGI in the assay on ACHN renal, with DU-145 prostate, in the assay on HOP-92 NSCLC, with HT29 colon, with MDA-N and in the assay on NCI-H522 lung was > 100 µM throughout. Further, the TGI in the assay with RPMI-8226 leukemia, with SF-268 CNS, in the assay on SF-539 CNS, in the assay on SR leukemia and in the assay with UACC-257 melanoma was > 100 µM in each case.

`COc1ccc2nc3ccccc3c(NCc3ccc(C)cc3)c2c1`: the GI50 in the assay on ACHN renal is 1.58 µM; with DU-145 prostate, 2.64 µM; with HOP-92 NSCLC, 1.27 µM; with HT29 colon, 1.43 µM; with NCI-H522 lung, 1.94 µM; in the assay with SF-268 CNS, 2.27 µM. Moreover, the GI50 in the assay with SF-539 CNS was 1.68 µM; in the assay on SR leukemia, 1.81 µM; in the assay with UACC-257 melanoma, 2.12 µM. The TGI with ACHN renal was 3.03 µM; in the assay on DU-145 prostate, 7.68 µM; with HOP-92 NSCLC, 3.12 µM; in the assay with HT29 colon, 7.16 µM; with NCI-H522 lung, 4.67 µM; in the assay with SF-268 CNS it was 5.44 µM. Besides, the results for the TGI with SF-539 CNS, in the assay on SR leukemia and with UACC-257 melanoma were 3.18 µM, 6.04 µM and 5 µM, respectively.

With `Cc1ccc(SSCCCCCS(=O)O)cc1`, the TGI in the assay with ACHN renal was > 100 µM; with HT29 colon it was > 100 µM; in the assay with NCI-H522 lung, 27.9 µM; in the assay on RPMI-8226 leukemia it was 71.4 µM; in the assay with SF-268 CNS, 36.1 µM; with SF-539 CNS it was 30.3 µM. Besides, the TGI was 28.9 µM with SR leukemia and > 100 µM with UACC-257 melanoma.

On to `O=C(COc1ccc(Cl)cc1Cl)N/N=C/C=C/c1ccc([N+](=O)[O-])o1`, for which the total growth inhibition concentration (TGI) is > 100 µM in the assay with ACHN renal; > 100 µM with HT29 colon; > 100 µM with MDA-N; 2.83 µM with NCI-H522 lung; 9.22 µM in the assay with RPMI-8226 leukemia; > 100 µM with SF-268 CNS. For the same compound, the total growth inhibition concentration (TGI) with SF-539 CNS was > 100 µM.
